One data set relates to K562 cells. Description: Apoptosis assay, flow cytometry with APO2.7 mAb, in K562 cells with or without 10 days of telomestatin. It is filed as cell-based. The conditions noted are these: for APO2.7 (%): 48 hours, K562 control cells or cells cultured with telomestatin 2 μM for 10 days; for induction of apoptosis / chemosensitivity in telomestatin-treated K562 cells compared with control cells: after exposure to the agent, the negative results are data not shown. The protocol:
Apoptosis assay. The incidence of apoptosis was determined by flow cytometric analysis with the FITC-conjugated APO2.7 monoclonal antibody (clone 2.7), which was raised against the 38 kDa mitochondrial membrane protein (7A6 antigen) and is expressed by cells undergoing apoptosis (Nakajima et al., 2001).
To assess the effects of telomerase inhibition in modulating responses to these reagents, experiments focused on early passaged telomestatin-treated K562 cells (PD10). In this series of experiments, K562 cells are cultured with telomestatin for 10 days, subsequently the telomestatin-treated K562 cells are incubated with the agents for 48 hours, and the incidence of apoptosis is determined by flow cytometric analysis with APO2.7 mAb (Table A). Apo2.7 is the apoptosis index. Higher score means that apoptosis is induced more powerfully.

In data set [1] the test system is human normal hematopoietic progenitor cells. Description: Clonogenic assay on normal hematopoietic progenitor cells. Format: cell-based. The following applies: at concentrations 10 times higher than those that completely inhibit colonies from OM9;22R cells.
In the next data set the test system is OM9;22 or OM9;22R cells. Kind of data set: Cell proliferation (growth kinetics) of OM9;22 / OM9;22R cells. Format: cell-based, human. The following applies: OM9;22 or Imatinib-resistant OM9;22R cells. The protocol: Cells and cell culture: The Ph-positive acute lymphoblastic cell line OM9;22 has been described previously (Ohyashiki et al., 1993). K562 cells were obtained from the American Type Culture Collection (Rockville, Md.). These cell lines were cultured in McCoy's 5A modified medium (Life Technology, Inc.) supplemented with 10% fetal calf serum (Hyclone Laboratories, Logan, Utah).
Effects of telomestatin on cell proliferation. We characterize the growth properties of telomestatin-treated cells. […] In a further study, we can characterize the ability of telomestatin to inhibit BCR-ABL transformation.

The source of these data is US7045523B2 (Novartis AG, priority 2001, dated 2006).

Each structure is given as a SMILES string. A value given as a limit tells only on which side of the number the result lay.

Turning to `CC[C@]1(O)C[C@H]2CN(CCc3c([nH]c4ccccc34)[C@@](C(=O)OC)(c3cc4c(cc3OC)N(C=O)[C@H]3[C@@](O)(C(=O)OC)[C@H](OC(C)=O)[C@]5(CC)C=CCN6CC[C@]43[C@@H]65)C2)C1` [VCR (control), vincristine], the “APO2.7 (%)” value in the data set on K562 cells (10 nM agent) is given as 12%; in the data set on K562 cells (50 nM agent), 18%; in the data set on K562 cells (100 nM agent) it was 24%; in the data set on K562 cells (500 nM agent), 29%; in the data set on K562 cells (1000 nM agent), 34%. Moreover, the “induction of apoptosis / chemosensitivity in telomestatin-treated K562 cells compared with control cells” value in the data set with K562 cells is given as “enhanced induction of apoptosis”.
On to `Cc1oc2nc1-c1nc(co1)-c1nc(co1)-c1nc(co1)-c1nc(co1)-c1nc(co1)C1=NC(CS1)c1nc-2c(C)o1` (centres unmarked) [telomestatin], for which, in data set [1], the “sensitivity of human normal hematopoietic progenitor cells” value was “significantly less sensitive”. In addition, the “time until proliferation is slowed” value in the data set with OM9;22 or OM9;22R cells was no more than 2 weeks.
For `COc1cccc2c1C(=O)c1c(O)c3c(c(O)c1C2=O)C[C@@](O)(C(C)=O)C[C@@H]3O[C@H]1C[C@H](N)[C@H](O)[C@H](C)O1` [DNR (control), Daunorubicin], the “APO2.7 (%)” value with K562 cells (10 nM agent) is 11%; in the data set on K562 cells (50 nM agent), 23%; in the data set on K562 cells (100 nM agent), 36%; in the data set with K562 cells (500 nM agent), 53%. Further, the “induction of apoptosis / chemosensitivity in telomestatin-treated K562 cells compared with control cells” value with K562 cells is given as “enhanced induction of apoptosis”.
As to `Nc1ccn([C@@H]2O[C@H](CO)[C@@H](O)[C@@H]2O)c(=O)n1` [cytosine arabimoside, cytosine arabinoside], in the data set on K562 cells, the “induction of apoptosis / chemosensitivity in telomestatin-treated K562 cells compared with control cells” value is listed as “significant chemosensitivity is not observed”.
Same read-out and setting: the value for `Sc1ncnc2nc[nH]c12` [6-mercaptopurine (6-MP), 6-mercaptopurine] was “significant chemosensitivity is not observed”; that for `COc1cc([C@@H]2c3cc4c(cc3[C@@H](O[C@@H]3O[C@@H]5CO[C@@H](C)O[C@H]5[C@H](O)[C@H]3O)[C@H]3COC(=O)[C@H]23)OCO4)cc(OC)c1O` [etoposide (VP-16), etoposide] was “significant chemosensitivity is not observed”.
With `O=C1c2c(O)ccc(O)c2C(=O)c2c(NCCNCCO)ccc(NCCNCCO)c21` [MIT (control), mitoxantrone], the “APO2.7 (%)” value was 10% with K562 cells (10 nM agent); 12% in the data set on K562 cells (50 nM agent); 17% with K562 cells (100 nM agent); 29% in the data set on K562 cells (500 nM agent); 38% with K562 cells (1000 nM agent). Moreover, in the data set with K562 cells, the “induction of apoptosis / chemosensitivity in telomestatin-treated K562 cells compared with control cells” value is recorded as “enhanced induction of apoptosis”.
Regarding `CN(Cc1cnc2nc(N)nc(N)c2n1)c1ccc(C(=O)N[C@@H](CCC(=O)O)C(=O)O)cc1` [methotrexate (MTX), methotrexate], the “induction of apoptosis / chemosensitivity in telomestatin-treated K562 cells compared with control cells” value in the data set with K562 cells is “significant chemosensitivity is not observed”.
